# According to ChEMBL document CHEMBL1201862, “PubChem BioAssay data set” (2004):
# Counter-ions that a name gives are not always drawn. Calls of active or inactive are those of the source.
# Columns and labels:
# Candida albicans [1] = assay: Candida growth inhibition combined with fluconazole – CaCi-2 strain, Alamar Blue, dry powder, set 3, dose response (AID 488907); format: functional, organism-based
# Candida albicans [2] = assay: resistant Candida growth with fluconazole co-treatment – CaCi-8 strain, Alamar Blue, dry powder, set 3, dose response (AID 488905); format: functional, organism-based
# [3] = molecular target: T1, Sentrin-specific protease 7 (Homo sapiens, UniProt Q9BQF6); format: functional;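 also: Luminescence-based dose-response confirmation of ultra-high-throughput screening hits, measuring inhibition of SENP7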
# T1 sequence (Q9BQF6 whole entry): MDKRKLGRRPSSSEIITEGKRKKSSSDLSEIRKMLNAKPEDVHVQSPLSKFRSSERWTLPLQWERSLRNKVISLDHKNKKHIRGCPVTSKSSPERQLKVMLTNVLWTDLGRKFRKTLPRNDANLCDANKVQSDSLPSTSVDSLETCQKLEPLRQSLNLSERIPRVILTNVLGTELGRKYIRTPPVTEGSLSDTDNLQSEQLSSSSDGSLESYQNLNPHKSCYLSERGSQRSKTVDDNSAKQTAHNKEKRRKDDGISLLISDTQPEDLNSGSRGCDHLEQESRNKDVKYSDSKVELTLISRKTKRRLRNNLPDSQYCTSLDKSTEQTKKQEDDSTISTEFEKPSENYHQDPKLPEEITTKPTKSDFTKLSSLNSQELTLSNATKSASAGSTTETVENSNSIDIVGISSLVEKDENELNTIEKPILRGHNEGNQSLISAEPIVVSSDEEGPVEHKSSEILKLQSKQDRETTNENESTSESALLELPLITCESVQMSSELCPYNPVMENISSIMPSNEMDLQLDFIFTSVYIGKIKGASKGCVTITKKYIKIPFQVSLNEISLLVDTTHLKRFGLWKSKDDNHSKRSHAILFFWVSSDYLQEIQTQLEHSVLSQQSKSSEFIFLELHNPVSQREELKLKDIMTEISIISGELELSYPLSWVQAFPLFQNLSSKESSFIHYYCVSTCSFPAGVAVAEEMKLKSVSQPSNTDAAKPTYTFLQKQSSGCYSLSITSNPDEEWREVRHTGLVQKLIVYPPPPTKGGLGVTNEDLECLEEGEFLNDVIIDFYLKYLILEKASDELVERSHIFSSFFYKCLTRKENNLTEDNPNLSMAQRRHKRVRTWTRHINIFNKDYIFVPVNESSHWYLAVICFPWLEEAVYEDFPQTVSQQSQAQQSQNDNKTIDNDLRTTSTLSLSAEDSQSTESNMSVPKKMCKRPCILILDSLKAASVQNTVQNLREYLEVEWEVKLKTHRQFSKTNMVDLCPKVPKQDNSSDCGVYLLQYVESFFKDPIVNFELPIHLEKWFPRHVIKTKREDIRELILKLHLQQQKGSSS
# [4] = molecular target: T2, Sentrin-specific protease 8 (Homo sapiens, UniProt Q96LD8); format: functional;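 also: luminescence read-out of SENP8 inhibition, dose-response confirmation following an ultra-high-throughput screen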
# T2 sequence (Q96LD8 whole entry): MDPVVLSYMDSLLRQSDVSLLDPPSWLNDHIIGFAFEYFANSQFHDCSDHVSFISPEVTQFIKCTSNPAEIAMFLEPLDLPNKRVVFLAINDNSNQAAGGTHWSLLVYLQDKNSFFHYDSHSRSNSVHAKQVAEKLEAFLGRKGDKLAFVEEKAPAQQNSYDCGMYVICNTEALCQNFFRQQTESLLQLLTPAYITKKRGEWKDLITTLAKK
# [5] = molecular target: T3, Sentrin-specific protease 6 (Homo sapiens, UniProt Q9GZR1); format: functional
# T3 sequence (Q9GZR1 whole entry): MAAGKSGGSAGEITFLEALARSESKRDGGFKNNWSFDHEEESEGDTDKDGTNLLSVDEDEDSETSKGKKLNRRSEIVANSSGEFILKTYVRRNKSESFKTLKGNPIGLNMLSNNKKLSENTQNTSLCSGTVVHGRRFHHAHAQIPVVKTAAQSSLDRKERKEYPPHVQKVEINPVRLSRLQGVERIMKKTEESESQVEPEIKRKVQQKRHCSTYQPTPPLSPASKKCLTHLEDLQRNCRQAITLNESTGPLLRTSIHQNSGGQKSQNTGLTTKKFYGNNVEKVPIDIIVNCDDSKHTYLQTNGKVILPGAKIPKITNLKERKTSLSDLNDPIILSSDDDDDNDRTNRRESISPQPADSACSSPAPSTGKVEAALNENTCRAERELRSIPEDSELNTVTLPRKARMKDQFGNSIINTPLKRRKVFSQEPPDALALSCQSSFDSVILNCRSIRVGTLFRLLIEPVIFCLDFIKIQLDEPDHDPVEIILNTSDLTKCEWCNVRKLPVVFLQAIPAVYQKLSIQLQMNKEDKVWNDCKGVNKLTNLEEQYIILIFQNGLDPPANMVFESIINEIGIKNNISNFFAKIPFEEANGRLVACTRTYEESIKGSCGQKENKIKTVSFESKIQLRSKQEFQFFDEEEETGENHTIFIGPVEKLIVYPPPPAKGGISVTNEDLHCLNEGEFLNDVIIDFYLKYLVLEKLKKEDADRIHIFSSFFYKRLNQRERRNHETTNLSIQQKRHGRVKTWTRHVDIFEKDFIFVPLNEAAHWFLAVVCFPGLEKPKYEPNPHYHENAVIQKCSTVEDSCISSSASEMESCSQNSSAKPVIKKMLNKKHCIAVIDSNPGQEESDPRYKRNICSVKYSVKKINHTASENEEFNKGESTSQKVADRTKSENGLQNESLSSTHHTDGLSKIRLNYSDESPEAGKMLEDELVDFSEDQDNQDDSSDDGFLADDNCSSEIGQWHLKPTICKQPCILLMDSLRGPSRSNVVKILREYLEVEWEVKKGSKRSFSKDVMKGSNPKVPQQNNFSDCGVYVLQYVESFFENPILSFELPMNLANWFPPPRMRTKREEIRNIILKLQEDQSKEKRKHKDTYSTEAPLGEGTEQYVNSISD
# HeLa = assay: ATP-based viability loss in HeLa cells – cell-based, CellTiter-Glo luminescence, cherry-pick samples, cytotoxicity control for MITF activator project, dose response (AID 540259); format: functional; settings: Homo sapiens
# Caspase-3 [6] = molecular target: T4, Caspase-3 (Homo sapiens, UniProt P42574); format: functional
# T4 sequence (P42574 whole entry): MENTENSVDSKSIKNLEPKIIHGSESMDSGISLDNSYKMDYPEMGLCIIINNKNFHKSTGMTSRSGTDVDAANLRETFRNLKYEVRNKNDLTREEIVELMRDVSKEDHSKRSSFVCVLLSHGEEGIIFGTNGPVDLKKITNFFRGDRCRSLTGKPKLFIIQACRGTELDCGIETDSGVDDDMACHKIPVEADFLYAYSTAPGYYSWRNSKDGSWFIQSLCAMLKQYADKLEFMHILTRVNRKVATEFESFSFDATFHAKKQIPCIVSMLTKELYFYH
# [7] = molecular target: Dual specificity protein kinase CLK1 (Homo sapiens, UniProt P49759); assay: inhibition of human CLK1 activity – biochemical, cherry-picked samples, selectivity assay for Dyrk1A inhibitor project, dose response (AID 588811)
# [8] = molecular target: Dual specificity tyrosine-phosphorylation-regulated kinase 1A (Rattus norvegicus, UniProt Q63470); format: biochemical, Homo sapiens
# Mu-type opioid receptor = Mu-type opioid receptor (Homo sapiens, UniProt P35372); assay: (§1) Counterscreen for agonists of heterodimerization of the mu 1 (OPRM1) and delta 1 (OPRD1) opioid receptors: Luminescence-based cell-based high throughput dose response assay to identify agonists of OPRM1 homodimerization.; format: functional
# Chain of Mu-type opioid receptor (P35372 whole entry): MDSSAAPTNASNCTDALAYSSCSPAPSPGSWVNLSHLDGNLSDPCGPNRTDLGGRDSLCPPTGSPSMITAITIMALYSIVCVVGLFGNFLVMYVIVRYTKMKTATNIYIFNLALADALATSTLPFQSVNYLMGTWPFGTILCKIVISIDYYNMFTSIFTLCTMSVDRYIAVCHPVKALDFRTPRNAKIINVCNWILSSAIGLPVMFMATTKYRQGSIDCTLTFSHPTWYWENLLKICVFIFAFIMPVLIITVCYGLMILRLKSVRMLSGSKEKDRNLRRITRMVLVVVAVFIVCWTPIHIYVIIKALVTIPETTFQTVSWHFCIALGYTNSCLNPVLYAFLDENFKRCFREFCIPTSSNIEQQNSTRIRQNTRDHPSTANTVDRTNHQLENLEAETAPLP
# [9] = molecular target: Delta-type opioid receptor (Homo sapiens, UniProt P41143); assay: as §1, with “of OPRD1” for “of OPRM1”, “homodimerization. [Related pubchem assays (depositor defined):AID504326, AID504355, AID504692, AID504904, AID504905]” for “homodimerization.”; format: functional
# [10] = blockers of HIV-1 ZM109 envelope-driven cell-cell fusion – HeLa effector, CEM target cells, luciferase, cherry-pick, dose response (AID 652058); format: functional, cell-based;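 also: luciferase signal from HIV-1 Env mediated cell-cell fusion of effector and target cells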
# [11] = molecular target: T5, Endoribonuclease toxin MazF (Escherichia coli K-12, UniProt P0AE70); assay: substrate-only fluorescence increase artefacts – biochemical, single-stranded RNase substrate, counter-screen for MazEF activator project, dose response (AID 588502); format: functional
# T5 sequence (P0AE70 whole entry, the tested form may be a part): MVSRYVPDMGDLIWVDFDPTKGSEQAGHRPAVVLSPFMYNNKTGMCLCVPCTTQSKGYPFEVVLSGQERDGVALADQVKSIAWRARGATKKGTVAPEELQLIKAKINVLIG
# [12] = blockers of HIV-1 envelope-mediated cell-cell fusion – cherry-pick, dose response (AID 652057); format: functional, cell-based
# [13] = molecular target: 5-hydroxytryptamine receptor 5A (Homo sapiens, UniProt P47898); assay: Counterscreen for agonists of OPRM1-OPRD1 heterodimerization: luminescence-based cell-based high throughput dose response assay to identify agonists of 5-hydroxytryptamine (serotonin) 5A receptor (HTR5A). [Related pubchem assays (depositor defined):AID504326, AID504355, AID504692, AID504904, AID504905]; format: functional
# [14] = viability loss in CEM21 cells – cell-based, CellTiter-Glo luminescence, cherry-picked, cytotoxicity control for viral fusion inhibitor project, dose response (AID 652042); format: functional;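 also: potency for signal decrease meaning cytotoxicity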
# [15] = molecular target: T5, Endoribonuclease toxin MazF; assay: activation of MazEF endoribonuclease cleavage – biochemical, fluorescence, single-stranded RNA substrate, uHTS hits, dose response (AID 588481); format: functional
# HEK293 [16] = assay: optical interference in Abeta FP readout, dose response, artefact control for IDE activator project, biochemical, fluorescence polarization (AID 588442); format: functional, cell-based; settings: Homo sapiens
# HEK293 [17] = assay: membrane integrity loss in HEK cells – cell-based, fluorescence, cytotoxicity control for IDE activator project, dose response (AID 588440); format: functional; settings: Homo sapiens;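 also: cytotoxicity by LDH release measuring loss of membrane integrity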
# Cytochrome P450 2C19 = Cytochrome P450 2C19 (Homo sapiens, UniProt P33261); assay: Cytochrome panel assay with activity outcomes. Panel member name: p450-cyp2c19 Compounds with AC50 equal or less than 10 uM are considered active; format: functional
# Chain of Cytochrome P450 2C19 (P33261 whole entry): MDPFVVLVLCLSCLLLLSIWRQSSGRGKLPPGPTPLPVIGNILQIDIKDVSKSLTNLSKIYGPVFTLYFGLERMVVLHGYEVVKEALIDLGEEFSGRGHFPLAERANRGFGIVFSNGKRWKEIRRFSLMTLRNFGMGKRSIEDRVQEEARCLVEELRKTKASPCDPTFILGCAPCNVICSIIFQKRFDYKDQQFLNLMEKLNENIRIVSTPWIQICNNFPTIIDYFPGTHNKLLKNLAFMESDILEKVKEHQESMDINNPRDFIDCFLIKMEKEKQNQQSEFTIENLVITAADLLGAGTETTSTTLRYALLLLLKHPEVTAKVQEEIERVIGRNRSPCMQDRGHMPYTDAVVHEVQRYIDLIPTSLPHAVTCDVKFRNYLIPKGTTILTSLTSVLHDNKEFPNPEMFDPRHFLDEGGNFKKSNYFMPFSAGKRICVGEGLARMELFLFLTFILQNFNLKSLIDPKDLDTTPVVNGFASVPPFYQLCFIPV
# Insulin-degrading enzyme [18] = molecular target: T6, Insulin-degrading enzyme (Homo sapiens, UniProt P14735); assay: recombinant IDE activation, cell-free – biochemical, fluorescence polarization, counter-screen for IDE activator project, dose response (AID 588681)
# T6 sequence (P14735 whole entry): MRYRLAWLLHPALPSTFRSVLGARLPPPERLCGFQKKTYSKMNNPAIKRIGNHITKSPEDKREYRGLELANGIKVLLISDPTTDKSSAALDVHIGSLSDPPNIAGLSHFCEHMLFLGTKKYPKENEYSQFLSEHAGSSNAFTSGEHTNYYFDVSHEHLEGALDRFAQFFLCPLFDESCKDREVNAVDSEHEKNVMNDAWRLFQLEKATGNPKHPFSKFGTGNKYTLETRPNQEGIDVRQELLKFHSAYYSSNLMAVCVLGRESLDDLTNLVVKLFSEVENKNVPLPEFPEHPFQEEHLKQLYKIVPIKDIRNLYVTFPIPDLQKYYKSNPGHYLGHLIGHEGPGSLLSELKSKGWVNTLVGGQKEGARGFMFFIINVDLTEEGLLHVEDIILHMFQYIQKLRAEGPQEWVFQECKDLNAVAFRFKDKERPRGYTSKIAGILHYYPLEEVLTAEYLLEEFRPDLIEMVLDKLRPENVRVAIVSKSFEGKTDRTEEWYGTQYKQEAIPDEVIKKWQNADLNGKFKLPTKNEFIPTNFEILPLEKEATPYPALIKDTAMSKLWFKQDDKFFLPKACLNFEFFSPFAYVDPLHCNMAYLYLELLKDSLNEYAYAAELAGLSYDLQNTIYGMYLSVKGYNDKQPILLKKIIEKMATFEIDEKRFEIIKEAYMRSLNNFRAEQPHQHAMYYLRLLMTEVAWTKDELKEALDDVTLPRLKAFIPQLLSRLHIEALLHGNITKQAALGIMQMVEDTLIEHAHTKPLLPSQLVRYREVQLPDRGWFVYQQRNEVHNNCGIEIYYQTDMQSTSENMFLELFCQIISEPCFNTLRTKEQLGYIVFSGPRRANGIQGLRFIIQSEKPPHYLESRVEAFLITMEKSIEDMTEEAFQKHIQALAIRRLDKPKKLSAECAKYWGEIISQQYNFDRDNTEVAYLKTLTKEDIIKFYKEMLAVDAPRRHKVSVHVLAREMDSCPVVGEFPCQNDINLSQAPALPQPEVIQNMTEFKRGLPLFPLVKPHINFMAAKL
# Insulin-degrading enzyme [19] = molecular target: T6, Insulin-degrading enzyme; assay: cellular IDE activation of Abeta substrate cleavage – fluorescence polarization, HEK cells, dose response (AID 588439); format: functional, cell-based
# Beta-galactosidase = Beta-galactosidase (Escherichia coli, UniProt Q8VNN2); assay: PubChem AID 485352; format: functional
# Chain of Beta-galactosidase (Q8VNN2 whole entry): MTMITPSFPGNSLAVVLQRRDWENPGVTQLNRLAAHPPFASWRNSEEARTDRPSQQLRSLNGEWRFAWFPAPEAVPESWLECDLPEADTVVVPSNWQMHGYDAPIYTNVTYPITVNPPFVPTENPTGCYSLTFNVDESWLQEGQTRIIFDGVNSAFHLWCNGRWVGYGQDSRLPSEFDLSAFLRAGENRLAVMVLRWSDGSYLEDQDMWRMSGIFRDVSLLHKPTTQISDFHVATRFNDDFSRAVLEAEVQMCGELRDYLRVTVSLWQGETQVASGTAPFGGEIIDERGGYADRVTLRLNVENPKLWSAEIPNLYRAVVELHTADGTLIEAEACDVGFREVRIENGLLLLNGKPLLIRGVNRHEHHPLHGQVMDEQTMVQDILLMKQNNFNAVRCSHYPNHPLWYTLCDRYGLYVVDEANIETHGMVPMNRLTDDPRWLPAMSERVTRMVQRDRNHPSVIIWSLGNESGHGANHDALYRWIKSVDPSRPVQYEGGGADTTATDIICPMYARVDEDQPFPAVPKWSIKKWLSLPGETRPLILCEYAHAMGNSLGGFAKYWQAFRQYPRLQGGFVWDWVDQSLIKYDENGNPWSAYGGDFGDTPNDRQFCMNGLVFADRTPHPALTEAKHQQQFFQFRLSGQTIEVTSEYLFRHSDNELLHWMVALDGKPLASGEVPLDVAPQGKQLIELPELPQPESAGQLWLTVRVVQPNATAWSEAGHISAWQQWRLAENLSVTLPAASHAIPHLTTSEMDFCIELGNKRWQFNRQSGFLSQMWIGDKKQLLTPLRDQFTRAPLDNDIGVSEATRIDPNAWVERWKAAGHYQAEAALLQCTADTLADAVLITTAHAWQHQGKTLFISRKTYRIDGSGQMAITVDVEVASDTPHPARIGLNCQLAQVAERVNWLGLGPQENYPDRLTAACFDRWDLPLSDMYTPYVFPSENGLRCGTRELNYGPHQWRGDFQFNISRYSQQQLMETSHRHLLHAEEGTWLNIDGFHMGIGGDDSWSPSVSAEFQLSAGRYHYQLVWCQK
# [20] = molecular target: Type-1 angiotensin II receptor (Homo sapiens, UniProt P30556); assay: antagonism of angiotensin II type 1 receptor – cell-based, uHTS hits, selectivity assay for APJ receptor antagonist project, dose response (AID 463214); format: functional;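 also: antagonist potency against angiotensin II stimulated AT1 response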
# Phospholipase D1 = Phospholipase D1 (Homo sapiens, UniProt Q13393); assay: cellular phospholipase D1 inhibition IC50 – cell-based, dose response (AID 602151); format: functional;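 also: cellular PLD1 assay in Calu-1 cells stimulated with PMA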
# Chain of Phospholipase D1 (Q13393 whole entry): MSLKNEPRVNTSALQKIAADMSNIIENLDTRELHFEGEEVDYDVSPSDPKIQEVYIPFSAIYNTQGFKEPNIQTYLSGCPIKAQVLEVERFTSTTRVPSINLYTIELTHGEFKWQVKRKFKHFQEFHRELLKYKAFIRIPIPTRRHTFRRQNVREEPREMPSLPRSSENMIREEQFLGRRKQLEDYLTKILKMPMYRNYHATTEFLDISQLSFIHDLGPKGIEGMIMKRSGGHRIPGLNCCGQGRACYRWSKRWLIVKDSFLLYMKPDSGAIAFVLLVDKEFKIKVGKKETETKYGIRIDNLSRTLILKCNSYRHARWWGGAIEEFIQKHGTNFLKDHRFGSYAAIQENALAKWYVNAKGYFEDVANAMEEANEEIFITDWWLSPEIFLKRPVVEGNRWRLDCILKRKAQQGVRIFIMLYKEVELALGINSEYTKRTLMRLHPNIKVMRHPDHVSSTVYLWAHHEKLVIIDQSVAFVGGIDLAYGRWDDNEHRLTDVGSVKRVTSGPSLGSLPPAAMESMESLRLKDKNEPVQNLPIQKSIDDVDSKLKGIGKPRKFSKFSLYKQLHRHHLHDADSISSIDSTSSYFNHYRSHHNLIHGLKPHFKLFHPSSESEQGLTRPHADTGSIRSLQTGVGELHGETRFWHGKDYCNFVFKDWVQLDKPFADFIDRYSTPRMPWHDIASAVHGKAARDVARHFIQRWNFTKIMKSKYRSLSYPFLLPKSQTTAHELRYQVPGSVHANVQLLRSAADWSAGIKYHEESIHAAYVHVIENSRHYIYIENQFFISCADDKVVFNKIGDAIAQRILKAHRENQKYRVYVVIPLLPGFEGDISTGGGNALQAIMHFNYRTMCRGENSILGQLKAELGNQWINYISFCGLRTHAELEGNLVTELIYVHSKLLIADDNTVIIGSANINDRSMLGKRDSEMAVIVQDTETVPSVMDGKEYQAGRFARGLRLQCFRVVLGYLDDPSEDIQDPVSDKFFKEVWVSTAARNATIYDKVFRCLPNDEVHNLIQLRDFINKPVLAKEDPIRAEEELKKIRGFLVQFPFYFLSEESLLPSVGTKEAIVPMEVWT
# Phospholipase D2 = Phospholipase D2 (Homo sapiens, UniProt O14939); assay: cellular phospholipase D2 inhibition IC50 – cell-based, dose response (AID 602147); format: functional;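 also: cellular assay in HEK293 cells overexpressing GFP-tagged PLD2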
# Chain of Phospholipase D2 (O14939 whole entry): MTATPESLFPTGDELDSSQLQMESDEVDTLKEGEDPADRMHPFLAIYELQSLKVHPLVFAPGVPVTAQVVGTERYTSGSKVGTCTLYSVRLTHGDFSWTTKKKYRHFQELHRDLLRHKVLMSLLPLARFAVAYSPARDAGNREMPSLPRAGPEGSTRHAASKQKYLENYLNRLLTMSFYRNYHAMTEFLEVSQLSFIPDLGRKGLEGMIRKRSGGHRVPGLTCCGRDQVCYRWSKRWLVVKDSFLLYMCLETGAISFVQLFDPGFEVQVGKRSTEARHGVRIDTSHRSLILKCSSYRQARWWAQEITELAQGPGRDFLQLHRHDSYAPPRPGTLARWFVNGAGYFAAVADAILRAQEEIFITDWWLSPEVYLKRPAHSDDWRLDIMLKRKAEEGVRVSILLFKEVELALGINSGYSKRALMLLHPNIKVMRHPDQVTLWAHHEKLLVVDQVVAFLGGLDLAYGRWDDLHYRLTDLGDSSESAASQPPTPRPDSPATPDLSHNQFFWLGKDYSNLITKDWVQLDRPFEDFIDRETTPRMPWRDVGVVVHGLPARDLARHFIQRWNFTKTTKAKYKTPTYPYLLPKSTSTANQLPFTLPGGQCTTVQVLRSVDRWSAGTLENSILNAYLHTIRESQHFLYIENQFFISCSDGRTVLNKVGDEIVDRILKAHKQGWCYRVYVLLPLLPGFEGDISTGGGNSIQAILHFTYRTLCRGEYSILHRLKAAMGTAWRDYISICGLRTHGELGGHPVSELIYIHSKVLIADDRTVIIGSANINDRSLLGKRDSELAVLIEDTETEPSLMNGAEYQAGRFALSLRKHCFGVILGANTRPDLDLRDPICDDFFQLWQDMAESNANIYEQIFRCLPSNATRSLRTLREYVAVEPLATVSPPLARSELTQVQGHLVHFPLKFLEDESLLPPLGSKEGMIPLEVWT
# [21] = molecular target: T2, Sentrin-specific protease 8; assay: inhibition of human SENP8 cleavage activity – biochemical, luminescence, SAR follow-up (AID 504501); format: functional
# Caspase-3 [22] = molecular target: T4, Caspase-3; assay: SAR Analysis of small molecule inhibitors of Sentrin-specific proteases (SENPs) using a Caspase-3 Selectivity assay. [Related pubchem assays (depositor defined):AID2540, AID2599, AID434973, AID489001]; format: functional
# [23] = molecular target: T3, Sentrin-specific protease 6; assay: SAR Analysis of small molecule inhibitors of Sentrin-specific protease 6 (SENP6) using a Luminescent assay. [Related pubchem assays (depositor defined):AID2582, AID2599]; format: functional
# [24] = molecular target: T1, Sentrin-specific protease 7; assay: inhibition of human SENP7 cleavage activity – biochemical, luminescence, SAR follow-up (AID 504497); format: functional
# [25] = molecular target: Voltage-gated inwardly rectifying potassium channel KCNH2 (Homo sapiens, UniProt Q12809); settings: Potency;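 also: confirmatory quantitative high-throughput screen measuring inhibition of hERG channel activity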
structure (smiles),measurement,setting,value
O=C(c1ccc(F)cc1)N1CCN(c2ccccn2)CC1,AC50,Candida albicans [1],4.43 µM (active)
same,AC50,Candida albicans [2],53.2 µM (active)
COC(=O)Nc1nnc(-c2ccccc2Cl)s1,IC50,[3],5.89 µM (active)
same,IC50,[4],23.6 µM (active)
same,IC50,[5],18.9 µM (active)
same,AC50,HeLa,61.8 µM (active)
same,IC50,Caspase-3 [6],5.86 µM (active)
COc1cc(C(=O)Nc2cccc(-c3nncn3C)c2)cc(OC)c1OC,AC50,[7],21.6 µM (active)
same,AC50,[8],2.95 µM (active)
Nc1nonc1C(=O)NCCNCc1c(OCc2ccccc2F)ccc2ccccc12,EC50,Mu-type opioid receptor,> 92.5 µM (inactive)
same,EC50,[9],74.8 µM (inactive)
same,AC50,[10],14.1 µM (active)
same,EC50,[11],> 99 µM (inactive)
same,AC50,[12],0.922 µM (active)
same,EC50,[13],> 92.5 µM (inactive)
same,AC50,[14],52.6 µM (active)
same,EC50,[15],> 99 µM (inactive)
O=C(/C=C/c1ccc(Cl)cc1)Nc1ccc(N2CCCCC2)cc1,EC50,HEK293 [16],> 54.7 µM (inactive)
same,IC50,HEK293 [17],> 89.2 µM (inactive)
same,AC50,Cytochrome P450 2C19,inconclusive
same,EC50,Insulin-degrading enzyme [18],> 54.7 µM (inactive)
same,EC50,Insulin-degrading enzyme [19],> 54.7 µM (inactive)
O=C(CCl)NNc1cccc(Cl)n1,EC50,Beta-galactosidase,> 40 µM (inactive)
same,IC50,[20],2.72 µM (active)
C[C@@H](CN1CCC2(CC1)C(=O)NCN2c1ccc(F)c(F)c1)NC(=O)c1cc2ccccc2[nH]1,IC50,Phospholipase D1,0.003 µM (active)
same,IC50,Phospholipase D2,0.034 µM (active)
C(=C\c1nc(-c2cc3ccccc3cn2)no1)/c1ccccc1,IC50,[21],> 99 µM (inactive)
same,IC50,Caspase-3 [22],> 99 µM (inactive)
same,IC50,[23],> 99 µM (inactive)
same,IC50,[24],> 99 µM (inactive)
Cc1ccccc1/C=C/C1=NCCN1 [METRAZOLINE OXALATE],AC50,[25],15.8 µM (inconclusive)
